Measurements as given in paper PMC4628094, “In Vitro Assessment of Uptake and Lysosomal Sequestration of Respiratory Drugs in Alveolar Macrophage Cell Line NR8383” (Pharmaceutical Research, 2015).
Read-outs that look alike come from different tables or passages of the source. Marks after values point to notes of the source that are not given here.

Experiments:
NR8383 cells [1] = test system: NR8383 cells
[2] = test system: isolated perfused lungs of rats; details: depending on concentration, ref ([37],[43],[44]); cited from earlier work
[3] = test system: Lysosomes isolated from male Wistar rat liver; parameters: method as in ref (4) (a number printed in a supplementary file, which may have a reference list of its own: not looked up in the article's list); details: 10 min, ref (4), cited from earlier work
[4] = test system: Lung tissue slices from male Wistar rats; parameters: method as in ref (5) (a number printed in a supplementary file, which may have a reference list of its own: not looked up in the article's list); details: NH4Cl 20 mM, drug 5 µM, 60 min, ref (5); cited from earlier work
[5] = test system: Liver tissue slices from male Wistar rats; parameters: method as in ref (5) (a number printed in a supplementary file, which may have a reference list of its own: not looked up in the article's list); details: NH4Cl 20 mM, drug 5 µM, 60 min, ref (5); cited from earlier work
[6] = test system: Lung granule fraction containing lysosomes from male Wistar rats; parameters: method as in ref (6) (a number printed in a supplementary file, which may have a reference list of its own: not looked up in the article's list); details: NH4Cl 10 mM, drug 1 µM, 10 min; ref (6); cited from earlier work
[7] = test system: Lung tissue slices from male Wistar rats; parameters: method as in ref (8) (a number printed in a supplementary file, which may have a reference list of its own: not looked up in the article's list); details: NH4Cl 20 mM, drug 5 µM, 60 min, ref (8); cited from earlier work
[8] = test system: Liver tissue slices from male Wistar rats; parameters: method as in ref (8) (a number printed in a supplementary file, which may have a reference list of its own: not looked up in the article's list); details: NH4Cl 20 mM, drug 5 µM, 60 min, ref (8); cited from earlier work
[9] = test system: Lung tissue slices from male Wistar rats; parameters: method as in ref (9) (a number printed in a supplementary file, which may have a reference list of its own: not looked up in the article's list); details: NH4Cl 20 mM, drug 5 µM, 60 min, ref (9); cited from earlier work
[10] = test system: Liver tissue slices from male Wistar rats; parameters: method as in ref (9) (a number printed in a supplementary file, which may have a reference list of its own: not looked up in the article's list); details: NH4Cl 20 mM, drug 5 µM, 60 min, ref (9); cited from earlier work
[11] = test system: Brain slices from male Wistar rats; parameters: method as in ref (10) (a number printed in a supplementary file, which may have a reference list of its own: not looked up in the article's list); details: drug 5 µM, 60 min, ref (10), cited from earlier work
[12] = test system: Lung tissue slices from male Wistar rats; parameters: method as in ref (14) (a number printed in a supplementary file, which may have a reference list of its own: not looked up in the article's list); details: monensin 10 µM, drug 5 µM, 60 min, ref (14); cited from earlier work
[13] = test system: Liver tissue slices from male Wistar rats; parameters: method as in ref (14) (a number printed in a supplementary file, which may have a reference list of its own: not looked up in the article's list); details: monensin 10 µM, drug 5 µM, 60 min, ref (14); cited from earlier work
[14] = test system: Primary rat cerebellar neurons; parameters: method as in ref (15) (a number printed in a supplementary file, which may have a reference list of its own: not looked up in the article's list); details: drug 10^-4 µM, 30 min, ref (15), cited from earlier work
[15] = test system: Lysosomes isolated from male Wistar rat liver; parameters: method as in ref (16) (a number printed in a supplementary file, which may have a reference list of its own: not looked up in the article's list); details: nigericin […], drug 1 µM, 20 min, ref (16), cited from earlier work
NR8383 cells [16] = assay: Accumulation (Kp) in NR8383 over a concentration range, two-site binding model; details: apparent saturable uptake equilibrium constant, two-site binding model, control
NR8383 cell line = test system: NR8383 cell line; parameters: method as in ref (11) (a number printed in a supplementary file, which may have a reference list of its own: not looked up in the article's list); details: NH4Cl 10 mM, drug 50 µM, 120 min; ref (11); cited from earlier work

CN(C)CCCN1c2ccccc2CCc2ccccc21 [Imipramine]
cytotoxicity (LDH) compared to positive control (NR8383 cells [1]; drug 50 μM): less than 1%
cytotoxicity (LDH) compared to positive control (NR8383 cells [1]; drug 100 μM): less than 1%
estimated Kp [2]: 17–44
Reduction in total uptake (%) ([3]; NH4Cl 50 mM, drug 10^-4 µM): 70^b %
Reduction of total uptake (%) ([3]; nigericin 50 µM, drug 0.001 µM): 70^b %
Reduction in total uptake (%) [4]: 59%
Reduction in total uptake (%) [5]: 58%
Reduction in total uptake (%) [6]: 31%
Reduction in total uptake (%) [7]: 35%
Reduction in total uptake (%) [8]: 57%
Reduction in total uptake (%) [9]: 49%
Reduction in total uptake (%) [10]: 62%
Reduction in total uptake (%) ([11]; NH4Cl 20 mM): 41%
Reduction of total uptake (%) ([11]; monensin 10 µM): 37%
Reduction of total uptake (%) [12]: 64%
Reduction of total uptake (%) [13]: 48%
Reduction of total uptake (%) ([14]; monensin 10 µM): 83%
Reduction of total uptake (%) ([14]; monensin […]): 50%
Reduction of total uptake (%) ([15]; relative to control with ATP): 99%
Reduction of total uptake (%) ([15]; relative to control without ATP): 93%
KU1 (NR8383 cells [16]): 0.9 ± 0.3 µM

CC[C@H]1OC(=O)[C@H](C)C(=O)[C@H](C)[C@@H](O[C@@H]2O[C@H](C)C[C@H](N(C)C)[C@H]2O)[C@](C)(OC)C[C@@H](C)C(=O)[C@H](C)[C@H]2N(CCCCn3cnc(-c4cccnc4)c3)C(=O)O[C@]12C [Telithromycin]
Reduction in total uptake (%) (NR8383 cell line): 80^b %
